Data reported in ChEMBL document CHEMBL1201862, “PubChem BioAssay data set” (2004).
Counter-ions that a name gives are not always drawn. The source made the active and inactive calls.

Legend:
HEK293 = assay: Fluorescence-based counterscreen for potentiators or agonists of NPY-Y2: cell-based high-throughput dose response assay to identify inhibitors of cyclic nucleotide gated ion channel (CNGC) activity. In this assay, the parental HEK293 cell line transfected with a cyclic-nucleotide gated ion channel (CNGC)-based cAMP sensor is used to measure inhibition of isoproterenol-induced CNGC activity by test compound.; assay type: functional; settings: Homo sapiens;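 note: stimulus is 1 µM isoproterenol at EC100 plus PDE inhibitor Ro 20-1724 at 25 µM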
[1] = biological target: T1, Neuropeptide Y receptor type 2 (Homo sapiens, UniProt P49146); assay: Fluorescence-based cell-based high-throughput dose response assay for agonists of NPY-Y2. [Related pubchem assays: 1703 (Screening assay (CNGC inhibitors).), 1359 (Screening assay (NPY-Y2 potentiators or agonists).), 1304 (Screening assay (NPY-Y1 potentiators or agonists).), 1710 (Screening assay (NPY-Y2 agonists).), 1791 (Summary AID.)]; assay type: functional
T1 sequence (P49146 whole entry): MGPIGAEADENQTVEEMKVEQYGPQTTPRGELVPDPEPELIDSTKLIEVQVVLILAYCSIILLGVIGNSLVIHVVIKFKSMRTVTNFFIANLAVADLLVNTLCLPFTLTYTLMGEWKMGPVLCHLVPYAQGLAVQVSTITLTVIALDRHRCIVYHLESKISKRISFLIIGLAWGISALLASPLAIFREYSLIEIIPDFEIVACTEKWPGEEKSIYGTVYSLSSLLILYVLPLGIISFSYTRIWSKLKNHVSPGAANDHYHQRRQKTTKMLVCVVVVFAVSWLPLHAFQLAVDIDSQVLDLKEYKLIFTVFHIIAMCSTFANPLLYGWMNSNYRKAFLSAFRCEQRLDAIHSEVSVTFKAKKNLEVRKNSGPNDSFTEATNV

[2] = biological target: T2, Neuropeptide Y receptor type 1 (Homo sapiens, UniProt P25929); assay: Fluorescence-based counterscreen for agonists of NPY-Y2: cell-based high-throughput dose response assay for agonists of NPY-Y1.; assay type: functional
T2 sequence (P25929 whole entry): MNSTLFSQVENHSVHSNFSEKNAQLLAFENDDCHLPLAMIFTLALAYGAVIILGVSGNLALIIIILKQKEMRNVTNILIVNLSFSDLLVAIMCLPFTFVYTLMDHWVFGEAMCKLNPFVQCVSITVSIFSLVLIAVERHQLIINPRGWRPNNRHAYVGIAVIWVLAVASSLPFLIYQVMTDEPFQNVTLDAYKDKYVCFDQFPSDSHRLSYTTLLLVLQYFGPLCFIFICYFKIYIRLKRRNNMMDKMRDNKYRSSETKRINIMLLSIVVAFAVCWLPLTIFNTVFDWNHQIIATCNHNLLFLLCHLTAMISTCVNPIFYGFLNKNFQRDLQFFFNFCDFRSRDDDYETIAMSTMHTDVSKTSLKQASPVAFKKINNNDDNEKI

[3] = blockers of bursicon-stimulated LGR2 cAMP reporter – cell-based, HEK293, CRE-luciferase reporter, cherry pick, set 2, dose response (AID 743343); assay type: functional;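 note: transfected cells were stimulated with diluted bursicon conditioned medium after compound addition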
[4] = blockade of melanocortin 4 receptor signaling – cell-based, plate reader, cherry pick, counter-screen for LGR2 antagonist project, dose response (AID 743444); assay type: functional;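 note: transfected HEK 293 cells stimulated with alpha-MSH peptide; potency of inhibitors of the alpha-MSH evoked signal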
[5] = NIH-3T3 fibroblast cytotoxicity, dose response, cytotoxicity control, cell-based, fluorescence, Alamar Blue, secondary assay (AID 2327); assay type: functional;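 note: NIH-3T3 mouse fibroblasts cultured with fluconazole at 8 µg/mL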
[6] = fluconazole-exposed Candida albicans growth modulators – fluorescence, retest, confirmation (AID 2467); assay type: functional, cell-based
Vero [7] = assay: viability of Vero cells under compound – cytotoxicity control for flavivirus capping enzyme inhibitors (AID 588742); assay type: functional; settings: Chlorocebus sabaeus
Genome polyprotein = Genome polyprotein (dengue virus type 2, UniProt P29990); assay: flavivirus cap methylation enzyme inhibition – biochemical, confirmation dose response, primary screen (AID 588689); assay type: functional
Chain of Genome polyprotein (P29990 2492-3391 limits assumed): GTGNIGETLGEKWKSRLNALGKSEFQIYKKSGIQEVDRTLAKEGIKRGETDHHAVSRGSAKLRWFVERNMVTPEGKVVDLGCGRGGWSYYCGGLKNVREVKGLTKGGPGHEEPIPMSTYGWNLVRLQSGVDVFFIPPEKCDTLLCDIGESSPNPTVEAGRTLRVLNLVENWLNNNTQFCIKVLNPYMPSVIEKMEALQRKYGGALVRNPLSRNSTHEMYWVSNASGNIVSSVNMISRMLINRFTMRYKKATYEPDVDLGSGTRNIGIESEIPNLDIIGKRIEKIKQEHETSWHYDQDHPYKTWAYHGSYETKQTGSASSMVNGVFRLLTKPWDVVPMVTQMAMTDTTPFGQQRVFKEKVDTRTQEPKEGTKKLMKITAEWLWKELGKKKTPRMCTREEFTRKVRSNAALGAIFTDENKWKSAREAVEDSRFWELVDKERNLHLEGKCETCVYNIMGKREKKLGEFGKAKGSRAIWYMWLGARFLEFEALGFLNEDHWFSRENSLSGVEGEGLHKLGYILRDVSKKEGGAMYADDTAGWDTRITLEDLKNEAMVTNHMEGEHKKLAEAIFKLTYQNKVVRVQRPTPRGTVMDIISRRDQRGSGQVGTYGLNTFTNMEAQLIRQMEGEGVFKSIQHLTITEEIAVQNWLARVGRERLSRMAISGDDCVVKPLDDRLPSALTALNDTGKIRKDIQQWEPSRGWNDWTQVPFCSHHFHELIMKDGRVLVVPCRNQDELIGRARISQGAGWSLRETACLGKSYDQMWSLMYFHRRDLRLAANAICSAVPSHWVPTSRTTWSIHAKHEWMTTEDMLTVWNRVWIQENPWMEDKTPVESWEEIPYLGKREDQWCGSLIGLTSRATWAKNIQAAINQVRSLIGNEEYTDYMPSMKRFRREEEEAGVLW

[8] = biological target: T3, Polyadenylate-binding protein 1 (Homo sapiens, UniProt P11940); assay: MLLE binding blockers, Cy5 peptide tracer – biochemical, fluorescence polarization, Cy5-PAM2 peptide, secondary, miRNA deadenylation inhibitor project, dose response (AID 602260); assay type: functional; settings: read-out: IC50_Mean
T3 sequence (P11940 whole entry, the tested form may be a part): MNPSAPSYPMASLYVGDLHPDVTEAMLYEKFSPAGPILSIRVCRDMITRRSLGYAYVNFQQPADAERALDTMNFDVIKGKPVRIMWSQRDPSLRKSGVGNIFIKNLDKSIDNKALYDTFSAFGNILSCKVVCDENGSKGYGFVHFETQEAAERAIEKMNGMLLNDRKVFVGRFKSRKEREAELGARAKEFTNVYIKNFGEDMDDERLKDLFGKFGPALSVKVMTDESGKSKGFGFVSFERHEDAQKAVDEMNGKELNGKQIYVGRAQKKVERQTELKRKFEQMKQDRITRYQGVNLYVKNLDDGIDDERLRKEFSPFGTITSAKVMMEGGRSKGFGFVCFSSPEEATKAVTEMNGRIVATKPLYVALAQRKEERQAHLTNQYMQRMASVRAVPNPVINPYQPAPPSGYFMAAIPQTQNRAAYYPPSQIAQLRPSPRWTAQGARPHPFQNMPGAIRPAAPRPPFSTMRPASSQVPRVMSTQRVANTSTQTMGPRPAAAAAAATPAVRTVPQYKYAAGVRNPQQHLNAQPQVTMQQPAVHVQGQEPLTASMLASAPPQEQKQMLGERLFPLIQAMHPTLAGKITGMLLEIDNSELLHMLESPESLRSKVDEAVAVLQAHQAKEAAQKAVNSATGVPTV

[9] = biological target: T3, Polyadenylate-binding protein 1; assay: MLLE domain peptide-binding blockers, IC50 – biochemical, fluorescence polarization, FITC-PAM2 peptide, dose response (AID 602259); assay type: functional; settings: read-out: IC50_Mean
[10] = viability of uninfected HEp-2 cells – cell-based, HTS, cytotoxicity control for RSV inhibitor project, dose response (AID 2410); assay type: functional; settings: human respiratory syncytial virus
Vero [11] = assay: cells; assay type: functional, cell-based; settings: Chlorocebus sabaeus
Aspartyl aminopeptidase = biological target: T4, Aspartyl aminopeptidase (Plasmodium falciparum 3D7, UniProt Q8I2J3)
T4 sequence (Q8I2J3 whole entry): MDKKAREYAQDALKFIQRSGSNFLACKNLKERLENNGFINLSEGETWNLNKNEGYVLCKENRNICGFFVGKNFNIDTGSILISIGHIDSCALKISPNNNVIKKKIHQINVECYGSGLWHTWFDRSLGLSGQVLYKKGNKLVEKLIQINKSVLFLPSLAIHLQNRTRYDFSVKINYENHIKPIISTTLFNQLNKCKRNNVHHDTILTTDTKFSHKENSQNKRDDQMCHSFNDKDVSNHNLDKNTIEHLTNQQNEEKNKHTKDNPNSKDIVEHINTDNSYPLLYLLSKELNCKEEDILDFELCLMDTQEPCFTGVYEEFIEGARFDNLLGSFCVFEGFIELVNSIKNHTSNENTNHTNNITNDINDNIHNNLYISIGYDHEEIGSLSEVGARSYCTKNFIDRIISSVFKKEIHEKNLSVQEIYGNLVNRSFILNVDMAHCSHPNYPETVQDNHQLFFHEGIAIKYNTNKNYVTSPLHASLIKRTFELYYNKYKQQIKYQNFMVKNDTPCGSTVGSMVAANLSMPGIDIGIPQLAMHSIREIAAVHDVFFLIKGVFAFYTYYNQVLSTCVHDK

Procathepsin L = Procathepsin L (Homo sapiens, UniProt P07711)
Chain of Procathepsin L (P07711 whole entry): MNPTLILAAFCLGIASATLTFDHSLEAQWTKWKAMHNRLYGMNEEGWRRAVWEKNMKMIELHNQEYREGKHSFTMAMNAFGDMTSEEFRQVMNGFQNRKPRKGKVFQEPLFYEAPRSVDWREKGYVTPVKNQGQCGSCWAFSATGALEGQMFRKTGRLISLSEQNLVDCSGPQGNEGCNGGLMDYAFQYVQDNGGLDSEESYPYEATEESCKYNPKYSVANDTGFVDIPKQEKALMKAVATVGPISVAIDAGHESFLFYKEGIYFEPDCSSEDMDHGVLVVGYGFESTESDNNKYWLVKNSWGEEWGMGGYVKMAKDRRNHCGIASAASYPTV

[12] = biological target: FAD-linked sulfhydryl oxidase ALR (Homo sapiens, UniProt P55789); assay: ALR-catalysed DTT oxidation blockers – biochemical, H2O2 detection, luminescence, cherry-pick, dose response (AID 493248)
Chain of FAD-linked sulfhydryl oxidase ALR (P55789 whole entry): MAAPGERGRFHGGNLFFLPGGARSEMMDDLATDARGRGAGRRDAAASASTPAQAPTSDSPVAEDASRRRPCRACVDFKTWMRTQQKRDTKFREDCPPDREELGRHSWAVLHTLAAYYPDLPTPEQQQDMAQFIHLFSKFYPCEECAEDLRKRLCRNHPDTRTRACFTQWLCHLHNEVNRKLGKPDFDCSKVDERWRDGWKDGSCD

With `Cc1ccc(C(=O)n2nc(-n3cccc3)c3c(C)cc(C)nc32)cc1` as the compound, how does the EC50 (HEK293) read?
The EC50 was > 35.4 µM (not active).

What about the EC50 [1] of the same compound?
Its EC50 is > 35.4 µM (not active).

What about the EC50 [2] of the same compound?
The EC50 was > 35.4 µM (not active).

And the AC50 [3]?
The AC50 was 13.9 µM (active).

What about the AC50 [4] of the same compound?
The AC50 was 1.22 µM (active).

What does the source list for `COc1cc(C(=S)N2CCN(c3ccccc3Cl)CC2)cc(O)c1O`?
EC50 [5]: > 150 µM (inactive); EC50 (HEK293): > 35.4 µM (not active); EC50 [1]: > 35.4 µM (not active); EC50 [6]: > 38 µM (not active); EC50 [2]: > 35.4 µM (not active); CC50 (Vero [7]): > 40 µM (active); IC50 (Genome polyprotein): > 100 µM (active); IC50 [8]: > 66 µM (inactive); IC50 [9]: > 66 µM (inactive)

For `Cc1[nH]c(C)c(S(=O)(=O)N2CCN(c3cccc(C(F)(F)F)c3)CC2)c1C(=O)N1CCCCC1`, which CC50 [10] is on record?
Its CC50 is 17.6 µM (active).

And the IC50 (Vero [11])?
Its IC50 is 22.4 µM (active).

And the IC50 (cells)?
Its IC50 is 23.3 µM (active).

With `CCC(=O)NC(=S)Nc1ccc(NC(=O)COc2ccc(Cl)c(C)c2)cc1` as the compound, how does the CC50 [10] read?
Its CC50 is > 50 µM (active).

And the IC50 (cells)?
Its IC50 is 39 µM (active).

Which IC50 (Aspartyl aminopeptidase) does the source give for `NCCc1ccc(O)c(O)c1` [DOPAMINE HYDROCHLORIDE] here?
The IC50 was 1.98 µM (active).

What about the IC50 (Procathepsin L) of the same compound?
The IC50 was > 59.6 µM (not active).

And the AC50 [12]?
Its AC50 is 1.42 µM (active).
